Measured values taken from publication PMC9120017, “Inhibition mechanism of the chloride channel TMEM16A by the pore blocker 1PBC” (Nature Communications, 2022).
Like-named read-outs stand apart in the source and are kept apart here.

Molecular target: T1, mouse TMEM16B (Mus musculus, UniProt Q8CFW1)
T1 construct: expressed in transfected cells; host or cells: HEK293T
T1 sequence (Q8CFW1 1-1002): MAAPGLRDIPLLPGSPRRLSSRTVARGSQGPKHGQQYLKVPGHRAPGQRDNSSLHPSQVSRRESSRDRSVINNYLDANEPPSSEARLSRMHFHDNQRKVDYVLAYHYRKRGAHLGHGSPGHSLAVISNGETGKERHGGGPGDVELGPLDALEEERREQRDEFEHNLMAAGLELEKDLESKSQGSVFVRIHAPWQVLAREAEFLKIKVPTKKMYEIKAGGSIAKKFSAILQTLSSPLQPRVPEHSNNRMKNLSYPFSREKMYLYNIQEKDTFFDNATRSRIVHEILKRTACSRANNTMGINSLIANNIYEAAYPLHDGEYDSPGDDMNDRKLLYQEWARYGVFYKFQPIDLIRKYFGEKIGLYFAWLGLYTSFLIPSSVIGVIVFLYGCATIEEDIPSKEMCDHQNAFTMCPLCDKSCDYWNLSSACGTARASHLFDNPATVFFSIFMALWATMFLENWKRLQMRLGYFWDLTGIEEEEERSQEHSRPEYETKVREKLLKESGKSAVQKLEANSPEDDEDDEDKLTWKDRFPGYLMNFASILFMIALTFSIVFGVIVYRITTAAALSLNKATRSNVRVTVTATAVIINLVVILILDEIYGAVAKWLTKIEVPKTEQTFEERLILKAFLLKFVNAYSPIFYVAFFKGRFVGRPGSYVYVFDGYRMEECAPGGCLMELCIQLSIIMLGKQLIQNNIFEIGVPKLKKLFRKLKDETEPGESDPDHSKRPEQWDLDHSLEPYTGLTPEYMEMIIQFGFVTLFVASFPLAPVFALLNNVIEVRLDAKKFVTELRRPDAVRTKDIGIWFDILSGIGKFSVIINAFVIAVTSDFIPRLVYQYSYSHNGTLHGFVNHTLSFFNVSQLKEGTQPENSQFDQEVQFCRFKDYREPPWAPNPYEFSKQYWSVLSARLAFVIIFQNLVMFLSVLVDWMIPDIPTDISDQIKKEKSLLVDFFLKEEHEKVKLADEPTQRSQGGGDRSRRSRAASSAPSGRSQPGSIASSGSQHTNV
Test: Inside-out patch recording of 1PBC block, TMEM16B
Type: cell-based
Details: 15 µM Ca2+; for remaining activity at 3 µM: 3 µM 1PBC; for remaining activity at 3 µM / remaining activity at 10 µM / remaining activity at 30 µM / remaining activity at 100 µM: read-out: I/Imax; for remaining activity at 10 µM: 10 µM 1PBC; for remaining activity at 30 µM: 30 µM 1PBC; for remaining activity at 100 µM: 100 µM 1PBC
Procedure: HEK293T cells (ATCC CRL-1573) were maintained in Dulbecco’s modified Eagle’s medium (DMEM; Sigma-Aldrich) supplemented with 10 U ml^−1 penicillin, 0.1 mg ml^−1 streptomycin (Sigma-Aldrich), 2 mM L-glutamine (Sigma-Aldrich), and 10% FBS (Sigma-Aldrich) in a humidified atmosphere containing 5% CO2 at 37 °C. HEK293S GnTI^− cells (ATCC CRL-3022) were maintained in HyClone HyCell TransFx-H medium (GE Healthcare) supplemented with 10 U ml^−1 penicillin, 0.1 mg ml^−1 streptomycin, 4 mM L-glutamine, 0.15% poloxamer 188 (Sigma-Aldrich), and 1% FBS in an atmosphere containing 5% CO2 at 185 rpm at 37 °C. The ac splice variant of mouse TMEM16A (UniProt ID: Q8BHY3), mouse TMEM16B (UniProt ID: Q8CFW1), or mouse TMEM16F (UniProt ID: Q6P9J9) bearing a 3C cleavage site, a Venus YFP, a Myc tag, and a Streptavidin-binding peptide (SBP) downstream of the open reading frame in a modified pcDNA3.1 vector (Invitrogen) were used as described previously[21],[31]. Mutations were introduced using a modified QuikChange method[58] and were verified by sequencing.
HEK293T cells were transfected with 3–4 μg DNA per 6 cm Petri dish using the calcium phosphate co-precipitation method and were used within 24–96 h after transfection. Recordings were performed on inside-out patches excised from HEK293T cells expressing the construct of interest. Patch pipettes were pulled from borosilicate glass capillaries (O.D. 1.5 mm, I.D. 0.86 mm, Sutter Instrument) and were fire-polished with a microforge (Narishige) before use. Pipette resistance was typically 3–8 MΩ when filled with the recording solutions detailed below. Seal resistance was typically 4 GΩ or higher. Voltage-clamp recordings were made using Axopatch 200B, Digidata 1550, and Clampex 10.7 (Molecular Devices). Analog signals were filtered with the in-built 4-pole Bessel filter at 10 kHz and were digitized at 20 kHz. Solution exchange was achieved using a gravity-fed system through a theta glass pipette mounted on an ultra-fast piezo-driven stepper (Siskiyou). […] All recordings were performed at 20 °C.
A symmetrical ionic condition was used throughout. Stock solution with Ca^2+-EGTA contained 150 mM NaCl, 5.99 mM Ca(OH)2, 5 mM EGTA, and 10 mM HEPES at pH 7.40. Stock solution with EGTA contained 150 mM NaCl, 5 mM EGTA, and 10 mM HEPES at pH 7.40. Free Ca^2+ concentrations were adjusted by mixing the stock solutions at the required ratios calculated using the WEBMAXC program (http://web.stanford.edu/~cpatton/webmaxcS.htm). Patch pipettes were filled with the stock solution with Ca^2+-EGTA, which has a free Ca^2+ concentration of 1 mM. 1PBC (ChemBridge) stock was reconstituted in anhydrous DMSO (Sigma-Aldrich) at 100 mM and stored at −20 °C. Working solutions with 1PBC were prepared by serial dilution. Unless otherwise stated, experiments were performed at a saturating Ca^2+ concentration as shown in Supplementary Table 1 and the primary data were corrected for current rundown as described previously[21],[25].
Concentration-response relations, obtained from the ratio of the I-V plots before and after the application of the blocker, were fitted to the Hill equation,1 I/Imax=1/1+IC50/[blocker]^h where I/Imax is the normalized current responses, IC50 defines the concentration at which inhibition is at its half-maximum, and h is the Hill coefficient.

SMILES: N#Cc1c(C(F)(F)F)cc(O)n2c1nc1ccccc12 [1PBC]
- remaining activity at 3 µM (+80 mV): 55.6%
- remaining activity at 3 µM (-80 mV): 89.9%
- remaining activity at 10 µM (+80 mV): 31%
- remaining activity at 10 µM (-80 mV): 70.1%
- Block of the channel TMEM16B: blocks
- remaining activity at 30 µM (+80 mV): 16.8%
- remaining activity at 30 µM (-80 mV): 43.9%
- remaining activity at 100 µM (+80 mV): 7.99%
- remaining activity at 100 µM (-80 mV): 20.5%
